Results from publication PMC8308625, “Preclinical Studies in Anti-Trypanosomatidae Drug Development” (Pharmaceuticals, 2021).
Read-outs that look alike come from different tables or passages of the source.

Columns and labels:
[1] = tested on: T. brucei; experiment: Growth inhibition of T. brucei bloodstream form trypomastigotes (resazurin); format: cell-based, Trypanosoma brucei brucei; conditions: for EC50: Trypanosoma brucei, read-out: EC50 ± SD T. brucei
Experimental: Compounds were dissolved in dimethylsulfoxide (DMSO).

[2] = tested on: L. amazonensis; experiment: Growth inhibition of L. amazonensis promastigotes (resazurin); conditions: for EC50: Leishmania amazonensis, read-out: EC50 ± SD L. amaz; for Selectivity Index MΦ/L. amaz: EC50 mammalian cell line/EC50 L. amazonensis
[3] = tested on: L. infantum veterinary isolate (MCAN_UY_2015_gPL8); experiment: Growth inhibition of L. infantum veterinary isolate promastigotes (resazurin); conditions: for Selectivity Index MΦ/Lin–Vet: EC50 mammalian cell line/EC50 L. infantum veterinary isolate; for EC50: Leishmania infantum, read-out: EC50 ± SD Lin–Vet
[4] = tested on: T. cruzi; conditions: cited from earlier work
[5] = cited from earlier work; for Ames Test (mutagenicity): ref [13],[14],[15]
[6] = tested on: L. braziliensis; conditions: read-out: EC50 ± SD L. brazils, cited from earlier work
[7] = tested on: L. infantum reference strain (MHOM/BR/2002/LPC-RPV); experiment: Growth inhibition of L. infantum reference strain promastigotes (resazurin); conditions: for EC50: Leishmania infantum, read-out: EC50 ± SD Lin–Ref; for Selectivity Index MΦ/Lin–Ref: EC50 mammalian cell line/EC50 L. infantum reference strain
[8] = molecular target: triosephosphate isomerase; conditions: mechanism of action; ref [13],[14],[15]; cited from earlier work
[9] = set-up: method as in PMID 24749923, PMID 26492824, PMID 25512408; conditions: ref [13],[14],[15]; cited from earlier work
[10] = tested on: L. amazonensis; experiment: Murine model of cutaneous Leishmaniasis; conditions: BALB/c mice, oral
Experimental: For the in vivo model of cutaneous disease, 1 × 10^7 amastigote parasites of L. amazonensis PH8 were inoculated in the upper part of the left paw of the mice. […] The mice were sacrificed 30 days post-infection. The antiparasitic effect was evaluated by two methods: the weekly evolution of the diameter of the infected paw throughout the experiment (Figure 2C) and the quantification of the parasite load in the infected area at the end of the experiment (Figure 2A).
Golden hamsters (Mesocritus auratus) were used to maintain L. amazonensis infections with the parasites passage every 6 to 8 weeks. BALB/c mice (female and male) supplied by the IFFA-CREDO, Lyon, France, and bred at the Instituto de Investigaciones en Ciencias de la Salud, Asuncion, Paraguay, were inoculated in the right hind footpad with 2 × 10^6 L. amazonensis amastigotes in 100 µL PBS obtained from donor hamsters. Disease progression was monitored by the measurement of lesion diameters for 7 to 12 weeks. […] Two days before the administration of the drug, the mice were randomly divided into groups of eight. […] The animals were euthanized two weeks after cessation of treatments to assess parasitological loads in the infected footpad. […] Following incubation at 27 °C for seven days, cultures were examined with an inverted microscope (Olympus, Tokyo, Japan) at a magnification of ×400. The number of parasites per gram in the lesion was calculated by the following equation: Parasite burden = geometric mean of the number of parasites in each duplicate/(number of microscope field counted × weight of lesion × (25,000) hemocytometer correction factor) [37]. […] Comparisons of parasite suppression in the infected footpads of the untreated and drug-treated groups were performed by Student’s t-test. One-way ANOVA (as a non-parametric statistical test) was also used on ranks.

[11] = tested on: J774.1 murine macrophages; experiment: Nonspecific cytotoxicity in murine macrophages (MTT); conditions: Mus musculus, J774.1, read-out: EC50 ± SD MΦ
Experimental: Cell viability was then assessed using the 3-(4,5-dimethylthiazol-2-yl)-2,5-diphenyltetrazolium bromide (MTT) colorimetric assay [1]. […] All assays were performed in triplicate [35].

[12] = tested on: human red blood cells; experiment: Red Blood Cell Lysis Assay; format: cell-based; conditions: 50 µM
Experimental: To assess a compound’s hemolytic activity the Red Blood Cell Lysis Assay (national blood bank) was performed. A compound-containing erythrocyte (2% (w/v)) suspension prepared in phosphate-buffered saline pH 7.4 was incubated for 24 h at 37 °C and the amount of hemoglobin released into the supernatant determined spectrophotometrically using a Varioskan TM Flash Multimode Reader (Thermo ScientificTM, MA, USA) set to a wavelength of 405 nm. The % hemolysis was determined using the follows equation: % released hemoglobin = [(A1 − A0)/(A1water)] × 100, where A1 and A0 represent the absorbance at 405 nm of the test sample at 0 and 24 h, and A1water the absorbance at 405 nm of water at 24 h. The experiments were performed by quintuplicate. […]

[13] = Liver fraction stability (cytosolic and microsomal fraction of rat hepatocytes, TLC); format: in vitro ADME; conditions: rat hepatocyte cytosolic and microsomal fractions, 37 °C
Experimental: For the determination of the stability in the different fractions, (cytosolic and microsomal of rat hepatocytes) the different proteins present in them were used. The fractions were prepared according to the previously reported protocol. […] The final concentration of the molecules in the aqueous medium was 400 µM and prepared from a stock in DMSO of 40 mM. The solutions were homogenized and incubated at 37 °C at 10 min, 30 min, 1 h, 2 h, 3 h and 4 h. (by TLC). For this, it was incubated at 37 °C in a volume of 1 mL: 2.5 µL of 30 mM Magnesium Chloride (MgCl); 2.5 µL of 40 mM Nicotinamide Adenosine Dinucleotide Phosphate (NADP+); 5 µL of 350 mM Glucose 6- Phosphate (Glu6P); 5 µL of Glucose 6- phosphate dehydrogenase (Glu6PD) 50 U/mL, 5 µL of the stock of 40 mM compounds and the volume of the Phosphate Buffer (pH = 7) must be such that cytosolic (CF) and microsomal (MF) fraction FC and FM present a final protein concentration of 0.1 mg/mL. After that, the stability of compounds 796 and 1019 in the cytosolic (FCF) and microsomal (FMF) fraction of rat hepatocytes was evaluated at different times (1–4 h). Thin-layer chromatography of ethyl acetate extracts was conducted to evaluate the presence of decomposition products. The mobile phase used for these TLCs was n-hexane: ethyl acetate (7: 3).

[14] = tested on: fibroblasts (NCTC929); experiment: Cytotoxicity in fibroblasts; format: cell-based; conditions: NCTC-929, read-out: EC50 ± SD Fibroblasts
Description: Table 5 Cytotoxicity and selectivity index of reference drugs and selected molecules. | column: EC50 ± SD (µM) ^a / Fibroblasts

[15] = Acute oral toxicity (up and down test); conditions: mice
[16] = in vivo; conditions: male, B6D2F1, mouse, po, 2000 mg/kg
[17] = tested on: human macrophages; experiment: Cytotoxicity in human macrophages; format: cell-based; conditions: 50 µM
Experimental: Differentiation of THP-1 to produce macrophage-like cells was carried out using phorbol 12-myristate-13-acetate (Sigma-Aldrich, Deisenhofen, Germany).
All assays were performed in triplicate.

[18] = molecular target: T1, Triosephosphate isomerase from T. brucei (TbTIM) (Trypanosoma brucei brucei, UniProt P04789); experiment: TbTIM inactivation; format: biochemical
T1 construct: made in house; host or cells: Escherichia coli
Experimental: (§1) Table S3. Activity of compound 796 in Triosephosphate isomerase from L. mexicana (LmTIM) […]
(§2) Expression and purification of proteins: TbTIM, LmTIM were expressed in Escherichia coli and purified as described in the literature. After purification, the enzyme, disolved in 100 mM triethanolamine, 10 mM EDTA and 1 mM dithiothreitol (pH 8), was precipitated with ammonium sulfate (75% saturation) and stored at 4 _C. Before use, extensive dialysis against 100 mM triethanolamine/10 mM EDTA (pH 7.4) was performed. Protein concentration was determined by absorbance at 280 nm (ε= 36,440 M-1cm-1) TbTIM and LmTIM. Enzymatic activity assays: Enzymatic activity was determined following the conversion of glyceraldehyde 3‐phosphate into dihydroxyacetone phosphate. The decrease in absorbance at 340 nm was followed in a multi‐cell Cary spectrophotometer at 25 °C. The reaction mixture (1 mL, pH 7.4) contained 100 mM triethanolamine, 10 mM EDTA, 0.2 mM NADH, 1 mM glyceraldehyde 3‐phosphate and 0.9 units of _‐glycerol phosphate dehydrogenase. The reaction was initiated by the addition of 5 ng/mL of the TbTIM. For the inhibition studies, TcTIM, LmTIM and TbTIM were incubated at a concentration of 5 mg/mL in a buffer containing 100 mM triethanolamine, 10 mM EDTA, pH 7.4 and 10% of DMSO at 36 _C. The mixture also contained the compounds at the indicated concentrations. Compounds were dissolved in DMSO. […]

[19] = molecular target: T2, Triosephosphate isomerase from L. mexicana (LmTIM) (Leishmania mexicana, UniProt P48499); experiment: LmTIM inactivation; format: biochemical
T2 construct: made in house; host or cells: Escherichia coli
Experimental: as §1, §2

[20] = tested on: L. infantum amastigote; experiment: Single dose study in the amastigote form of L. infantum; format: cell-based; conditions: Leishmania infantum, single dose 10 µM
[21] = mice, up and down test, cited from earlier work
[22] = tested on: Cruzipain; conditions: mechanism of action; ref [13],[14],[15]; cited from earlier work
[23] = tested on: T. cruzi; set-up: method as in PMID 31652542; conditions: mice, ref [16], cited from earlier work
[24] = cited from earlier work
[25] = Table 4, curcuminoids, ref [14], read-out: EC50 ± SD T. cruzi
[26] = epimastigotes, multiple strains, ref [13],[14],[15], read-out: EC50 in vitro anti-T. cruzi, epimastigotes
[27] = Table 4, curcuminoids, ref [14]

T2 sequence (P48499 whole entry): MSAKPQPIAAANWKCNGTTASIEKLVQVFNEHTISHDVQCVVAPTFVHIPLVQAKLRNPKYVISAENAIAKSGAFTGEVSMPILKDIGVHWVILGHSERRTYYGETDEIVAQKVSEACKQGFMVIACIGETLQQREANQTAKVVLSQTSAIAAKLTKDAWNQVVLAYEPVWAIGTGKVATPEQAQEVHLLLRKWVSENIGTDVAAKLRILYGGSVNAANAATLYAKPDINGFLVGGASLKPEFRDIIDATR
T1 sequence (P04789 whole entry): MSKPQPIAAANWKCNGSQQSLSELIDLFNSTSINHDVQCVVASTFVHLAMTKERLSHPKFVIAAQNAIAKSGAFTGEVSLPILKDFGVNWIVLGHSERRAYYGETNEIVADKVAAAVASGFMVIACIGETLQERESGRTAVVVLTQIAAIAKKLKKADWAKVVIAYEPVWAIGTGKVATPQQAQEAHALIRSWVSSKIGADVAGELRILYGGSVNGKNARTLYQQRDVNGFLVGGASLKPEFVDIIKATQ

Compound	EC50 [2]	EC50 [4, 25]	EC50 [4, 26]	Ames Test (mutagenicity) [5]	EC50 [6, 27]	EC50 [7]	Stability in vitro (microsomal, plasma, other solutions) [9]	EC50 [11]	Selectivity Index MΦ/L. amaz [2]	cytotoxicity in human red blood cells [12]	Selectivity Index MΦ/Lin–Vet [3]	EC50 [3]	EC50 [14]	survival in the acute toxicity model in vivo [15]	cytotoxicity in human macrophages [17]	Selectivity Index MΦ/Lin–Ref [7]	inhibition at 10 µM [20]	other results
O=C1/C(=C/C=C/c2ccco2)CCC/C1=C\C=C\c1ccco1 [Compound 1019]	7 ± 1 µM	0.6 ± 0.2 µM	0.6 µM	no	13 ± 7 µM	< 0.3 µM	low											trypanosomicidal effect on T. brucei [1]: no trypanosomicidal effect; growth inhibitory / trypanosomicidal effect on the L. infantum canine-derived isolate [3]: no trypanosomicidal effect; IC50 [8]: 0.086 µM
O=C(/C=C/c1cccs1)/C=C/c1cccs1 [Compound 796]	8 ± 2 µM	5 ± 0.8 µM	5 µM		4 ± 0.5 µM	4 ± 0.5 µM	moderate	38 ± 7 µM	5	did not see any inhibition	4	10 ± 2 µM	158 ± 5 µM	100%	did not see any inhibition	10	90%	% of suppression of the parasites ([10]; parasite load in lesion, 796 at 203 µmol/kg, other molecules at half that dose): more than 50%; diameter of the paw ([10]; when treatment begins (Figure 2C)): begins to decrease; EC50 ([1]; Table 4, curcuminoids): 0.6 ± 0.1 µM; metabolic stability: time compound detected / degraded [13]: ≥ 4 h; LD50 at 14 days [16]: > 2000 mg/kg; Media Mn/Mouse ± SD (male, CD-1, mouse, in vivo, 150 mg/kg): 5 ± 1; Number EPMn (total polychromatic micronucleated erythrocytes in the 5 assays) (mice, 796 150 mg/kg oral, Cyclophosphamide intraperitoneal positive control, 5000 EPC observed): 21; inhibition at 50 µM [18]: 61%; inhibition at 50 µM [19]: 42.5%
C=CCn1c(C(=O)N2CCN(C/C=C/c3ccccc3)CC2)cs\c1=N/N=C/C=C/c1ccco1 [Compound 314]	12 ± 5 µM			No		1.3 ± 0.5 µM	High	30 ± 5 µM	3	did not see any inhibition	12	2.5 ± 1 µM	346 ± 9 µM	100%	did not see any inhibition	23	85%	acute toxicity LD50 ([21]; previously evaluated, ref [13],[16]): > 2000 mg/kg of weight; Acute oral toxicity LD50 ([21]; ref [13],[14],[15]): ^d LD50 > 2000 mg/kg in mice; leishmanicidal activity in vivo ([10]; half the dose of 796): low; EC50 ([1]; Table 3, thiazolidene hydrazines): 5 ± 1 µM; IC50 [22]: 4.3 µM; EC50 ([4]; Table 3, thiazolidene hydrazines, ref [13],[16],[19],[23],[25], read-out: EC50 ± SD T. cruzi): 3.1 ± 0.2 µM; EC50 ([4]; amastigotes, multiple strains, ref [13],[14],[15], read-out: EC50 in vitro anti-T. cruzi, amastigotes): 0.72 µM; AMES test, mutagenic capacity ([5]; previous works, ref [13],[16]): negative; EC50 ([6]; Table 3, thiazolidene hydrazines, ref [13],[16],[19],[23],[25]): 4 ± 1 µM; reduction of parasitemia ([23]; oral, same dose as in the Leishmaniasis in vivo assay): more than 60%; survival ([23]; mean 60% survival in untreated group): 100%; micronucleus test, genotoxicity ([24]; previous works, ref [13],[16]): not genotoxic; Micronucleus test in mice (Genotoxicity) ([24]; ref [13],[14],[15]): No
